Literature values in patent US8580317B2, “Compositions and methods for treating acne” (Revance Therapeutics, Inc., priority 2005, dated 2013).

Experiments:
[1] = system: propionibacterium acnes (P. Acnes); details: background statement
[2] = benzoyl peroxide topically applied

## O=C(OOC(=O)c1ccccc1)c1ccccc1 [benzoyl peroxide]
[1]
  kills P. acnes compared with other medications: better than any other medication on the market
[2]
  share of the population that experiences skin allergies: about 10%
